Like-named read-outs stand apart in the source and are kept apart here.

Format in all cases: in vivo
For experiment [1], the system named is sorgo (Sorghum bicolor Moench) (var.: Lucky Sorgo). The experiment is described as follows: Test Example 6, soil column downward movement, sorgo bioassay. Conditions: 14th day after sowing. The method, then:
Soil (sterilized soil:sand=3:1) was packed (4 L) into a column (9.5 cm in diameter×40 cm in height, application area: 0.007 m^2), and tap water was dropped from above by a Peristaltic pump before application of the herbicide for the purpose of maintaining the soil moisture to be uniform. Then, 10 mL of a spray solution prepared so that each agent (Compound No. 2-1, the above Reference Compounds 1 and 2) would be at a concentration corresponding to 250 g/ha was dropwise applied by a pipette. After application, water was dropped again at a rate of 400 mL/hr for about 3 hours by means of a Peristaltic pump. After the dropping, the column was left to stand for 1 day, and then the column was vertically evenly divided and seeds of sorgo (Sorghum bicolor Moench) (var.: Lucky Sorgo) were sown in a row. On the 14th day after sowing, the state of growth of the plant was visually observed at 3 cm intervals from the application point of the agent, whereby the germination and the degree of growth were evaluated by a growth inhibition rate (%) of 0 (equivalent to the non-treated area) to 100% (complete kill) to obtain the results in Table 17.
From the above results, the growth inhibition rates of Reference Compounds No. 1 and No. 2 are observed in depths deeper than that of Compound No. 2-1. […] Whereas, Compound No. 2-1 stayed at a shallow portion of soil (in a layer of from 0 to 9 cm).

Experiment [2] deals with green foxtail (Setaria viridis L.). Kind of experiment: Test Example 5, foliar treatment versus Reference Compounds. The conditions noted are these: 5.0 to 5.5 leaf stage, 18th day after application, read-out: Growth inhibition rate (%) (18th day after application) Green foxtail. The text has this: (§1) Upland field soil was put into a 1/1,000,000 hectare pot, and seeds of various plants were sown. When the respective plants reached predetermined leaf stage ((1) velvetleaf (Abutilon theophrasti MEDIC.): 3.0 to 3.5 leaf stage, (2) giant foxtail (Setaria faberi Herrm.): 4.0 to 4.5 leaf stage, (3) green foxtail (Setaria viridis L.): 5.0 to 5.5 leaf stage, and (4) corn (Zea mays L.): 4.0 to 4.3 leaf stage, a wettable powder of compound No. 2-1 of the above-mentioned present invention, a wettable powder of the above-mentioned Reference Compound 1 and a wettable powder of the above-mentioned Reference Compound 2, prepared in accordance with a conventional preparation method, were weighed so that the active ingredients became the prescribed amounts, and diluted with water in an amount corresponding to 300 liter per 1 hectare (containing 0.5 vol % of an agricultural spreader (Destiny HC: WINFIELD SOLUTIONS by LLC). The spray solutions thus prepared were applied for foliar treatment by a small sprayer.
(§2) On the 7th to 20th day after application, the state of growth of the respective plants was visually observed, and the herbicidal effect was evaluated by a growth inhibition rate (%) of 0 (equivalent to the non-treated area) to 100% (complete kill).

The subject of experiment [3] is giant foxtail (Setaria faberi Herrm.). The experiment is described as above. The conditions noted are these: 4.0 to 4.5 leaf stage, 20th day after application, read-out: Growth inhibition rate (%) (20th day after application) Giant foxtail.
Text: as §1, §2

Experiment [4] deals with velvetleaf (Abutilon theophrasti MEDIC.). The description is as above. Conditions: 3.0 to 3.5 leaf stage, 20th day after application, read-out: Growth inhibition rate (%) (20th day after application) Velvet leaf.
Text: as §1, §2

In the next experiment the test system is corn (Zea mays L.). The description is as above. The conditions noted are these: 4.0 to 4.3 leaf stage, 7th day after application, read-out: Growth inhibition rate (%) (7th day after application) Corn.
Text: as §1, §2

The mark [5] stands for this setting: depth 0-3 cm, read-out: Growth inhibition rate (%) against sorgo, Depth (cm) from the applied surface 0-3.
The mark [6] stands for this setting: depth 3-6 cm, read-out: Growth inhibition rate (%) against sorgo, Depth (cm) from the applied surface 3-6.
[7] abbreviates: depth 6-9 cm, read-out: Growth inhibition rate (%) against sorgo, Depth (cm) from the applied surface 6-9.
Setting [8] is: depth 9-12 cm, read-out: Growth inhibition rate (%) against sorgo, Depth (cm) from the applied surface 9-12.
The mark [9] stands for this setting: depth 12-15 cm, read-out: Growth inhibition rate (%) against sorgo, Depth (cm) from the applied surface 12-15.
[10] abbreviates: depth 15-18 cm, read-out: Growth inhibition rate (%) against sorgo, Depth (cm) from the applied surface 15-18.
The mark [11] stands for this setting: depth 18-21 cm, read-out: Growth inhibition rate (%) against sorgo, Depth (cm) from the applied surface 18-21.
Where [12] appears, read: depth 21-24 cm, read-out: Growth inhibition rate (%) against sorgo, Depth (cm) from the applied surface 21-24.
Setting [13] is: depth 24-27 cm, read-out: Growth inhibition rate (%) against sorgo, Depth (cm) from the applied surface 24-27.
The mark [14] stands for this setting: depth 27-30 cm, read-out: Growth inhibition rate (%) against sorgo, Depth (cm) from the applied surface 27-30.

`CCn1ncc(C(=O)c2ccc(S(C)(=O)=O)c(OCCOC)c2Cl)c1O` [Reference Compound 1]: the inhibition at 250 g/ha came to 58% in experiment [1] (setting [5]); 58% in experiment [1] (setting [6]); 58% in experiment [1] (setting [7]); 60% in experiment [1] (setting [8]); 53% in experiment [1] (setting [9]); 35% in experiment [1] (setting [10]). In addition, the inhibition at 250 g/ha amounted to 28% in experiment [1] (setting [11]), 30% in experiment [1] (setting [12]), 28% in experiment [1] (setting [13]) and 15% in experiment [1] (setting [14]). In experiment [2], the inhibition at 7 g/ha amounted to 40%. Further, the inhibition at 3.5 g/ha in experiment [3] was 30%; in experiment [4] it was 45%.
With `COCCOc1c(S(C)(=O)=O)ccc(C(=O)c2cnn(C(C)C)c2O)c1Cl` [Reference Compound 2], the inhibition at 250 g/ha in experiment [1] (setting [5]) was found to be 48%; in experiment [1] (setting [6]), 45%; in experiment [1] (setting [7]), 47%; in experiment [1] (setting [8]), 43%; in experiment [1] (setting [9]), 58%; in experiment [1] (setting [10]) it was 55%. The inhibition at 250 g/ha came out at 61% in experiment [1] (setting [11]), 63% in experiment [1] (setting [12]), 35% in experiment [1] (setting [13]) and 8% in experiment [1] (setting [14]). For the same compound, the inhibition at 7 g/ha in experiment [2] was found to be 35%. Also, the inhibition at 90 g/ha in the experiment with corn (Zea mays L.) turned out to be 25%. For the same compound, the inhibition at 3.5 g/ha in experiment [3] came out at 0%; in experiment [4], 50%.

The values above are taken from patent US8466089B2, “Pyrazole compounds, process for their production and herbicides containing them” (Ishihara Sangyo Kaisha, Ltd., priority 2008, dated 2013).
